{"source": "patent US20040009241A1", "about": "“External skin preparations for suppressing sebum secretion” (priority 2002, published 2004)", "key": {"[1]": {"system": "sebum secretion", "test": "Inhibitory effect of MMPs inhibitors on sebum secretion in UVB-irradiated hairless mice (sebumeter)", "format": "in vivo", "text": "UV is generally known to activate the sebaceous gland cells on the skin and thereby to enhance the amount of sebum secretion, which has been reported on a model using hairless mice ([…] et al., Arch Dermatol., Vol. 284, 106 (1992)). In an experiment, Bissett et al. (Phytochem. Phytobiol, Vol. 46, 3, 367 (1987)) applied the method of preparing a light-aged skin, and induced the activation of sebaceous gland cells and enhancement in the amount of sebum by irradiating the dorsal area of the […] repeatedly three times per week for 5-8 weeks by controlling the amount of UVB irradiation to under the […] formation level. […] As the control, a group in which the solvent for the test substance was applied in a similar protocol was set up, and the effect of inhibiting sebum was evaluated by comparing the amount of sebum between the two. The measurement of sebum amount was performed using a sebumeter (COURAGE KHAZAKA company). From the measured values, the ratio (%) of sebum inhibition was calculated based on the following criteria: [formula]"}, "[2]": {"system": "gelatinase belonging to the MMPs", "details": "skin irradiated with UVB for 10 weeks, EDTA (100 mM) added in vitro; FIG. 3C", "excerpt": "By staining gelatin with the Ponceau solution, the gelatin digested area (the area in which the gelatinase activity is present) was rendered white for detection."}, "[3]": {"system": "sebaceous gland", "test": "Effect of transdermal application of an MMPs inhibitor on sebaceous gland development under UVB stimulation", "format": "in vivo, hairless mice", "details": "FIG. 4A vs solvent only FIG. 4B", "text": "It is known that when UVB (50 mJ/cm^2-200 mJ/cm^2; 50 mJ/cm^2 at the start of irradiation, the amount of irradiation is increased stepwise depending on the number of irradiations) below the erythema formation level is repeatedly irradiated to hairless mice, the sebaceous gland becomes developed and the amount of sebum increases (R. H. Lesnik et al., Arch Dermatol., Vol. 284, 106 (1992)). FIG. 2A and FIG. 2B represent the H&E stains of the UVB-non-irradiated tissue and the UVB-irradiated tissue. It is observed that UVB irradiation results in the thickening of the epidermis as well as the development of the sebaceous gland.\n(§1) The effect of the transdermal application of an MMPs inhibitor on the sebaceous gland development and the gelatinase activity present in the sebaceous gland is shown for active substance A as an example (FIG. 4A and FIG. 4B)."}, "[4]": {"system": "gelatinase", "test": "Gelatinase activity in the sebaceous gland after transdermal application, in situ zymography", "format": "in vivo, hairless mice", "details": "FIG. 4A vs solvent only FIG. 4B", "text": "as §1"}, "[5]": {"details": "100 μl of 1% test substance applied three times per week immediately after each UV irradiation, vs solvent group, hairless mice dorsal area, 5-8 weeks UVB"}}, "note": "Counter-ions that a name gives are not always drawn.", "data": [{"smiles": "COc1cc(/C=C/C(=O)CC(=O)/C=C/c2ccc(O)c(OC)c2)ccc1O", "note": "[Curcumine, curcumine]", "values": [{"measurement": "Ratio of sebum inhibition (%)", "setting": "[1]; [5]", "value": 77, "unit": "%"}]}, {"smiles": "O=C(O)CN(CCN(CC(=O)O)CC(=O)O)CC(=O)O", "note": "[EDTA]", "values": [{"measurement": "Gelatin degradation at the epidermal area and the sebaceous gland area", "setting": "[2]", "value": "inhibited the gelatin degradation"}]}, {"smiles": "C[C@]12CC[C@@H]3c4ccc(O)cc4CC[C@H]3[C@@H]1CC[C@@H]2O", "note": "[Estradiol, estradiol, reference compound]", "values": [{"measurement": "Ratio of sebum inhibition (%)", "setting": "[1]; positive control, 0.6 mg/kg oral administration, UVB-irradiated hairless mice", "value": 65, "unit": "%"}]}, {"smiles": "COc1ccc(S(=O)(=O)N(Cc2cccnc2)[C@@H](C(=O)NO)C(C)C)cc1", "note": "[Hydrochloride of active ingredient A]", "values": [{"measurement": "Ratio of sebum inhibition (%)", "setting": "[1]; [5]", "value": 79, "unit": "%"}]}, {"smiles": "COc1ccc(S(=O)(=O)N(Cc2cccnc2)[C@@H](C(=O)NO)C(C)C)cc1", "note": "[active substance A]", "values": [{"measurement": "Development of the sebaceous gland area", "setting": "[3]", "value": "suppresses the development of the sebaceous gland area"}, {"measurement": "Gelatinase activity present in the sebaceous gland", "setting": "[4]", "value": "inhibited"}]}]}
